According to patent US9862684B2, “Modulation of K2P channels” (The Regents of the University of California, priority 2013, dated 2018):

Molecular target: T1, K2P5.1 (TASK-2) (Mus musculus, UniProt F6V9U5)
T1 construct: expressed in transfected cells; host or cells: Xenopus oocytes
T1 sequence (F6V9U5 1-502): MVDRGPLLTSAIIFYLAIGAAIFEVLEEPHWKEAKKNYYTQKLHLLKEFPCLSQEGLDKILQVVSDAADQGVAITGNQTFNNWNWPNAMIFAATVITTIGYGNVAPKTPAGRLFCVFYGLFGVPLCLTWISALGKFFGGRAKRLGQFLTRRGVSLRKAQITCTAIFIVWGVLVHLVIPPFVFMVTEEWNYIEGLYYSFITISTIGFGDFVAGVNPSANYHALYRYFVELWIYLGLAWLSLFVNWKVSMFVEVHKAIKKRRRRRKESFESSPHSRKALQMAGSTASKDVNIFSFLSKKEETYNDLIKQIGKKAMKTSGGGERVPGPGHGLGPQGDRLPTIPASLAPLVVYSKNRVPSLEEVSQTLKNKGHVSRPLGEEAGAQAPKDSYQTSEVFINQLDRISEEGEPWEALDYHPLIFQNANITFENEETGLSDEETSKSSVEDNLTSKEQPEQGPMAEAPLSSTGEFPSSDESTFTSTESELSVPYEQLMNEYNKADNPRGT
Experiment: Two-electrode voltage clamp, Xenopus oocytes expressing K2P5.1 (TASK-2)
Type: cell-based, Murine
Description: FIG. 7 ML67-33 is a selective activator of heat- and mechanosensitive K2P channels. a-f, Exemplar I-V curves showing the effect of ML67-33 on a, K2P10.1 (TREK-2), b, K2P4.1 (TRAAK), c, K2P3.1 (TASK-1), d, K2P9.1 (TASK-3), e, K2P5.1 (TASK-2), and f, K2P18.1 (TRESK) measured in Xenopus oocytes in 2 mM [K^+]o pH 7.4. Currents were elicited by a voltage ramp from −150 to 50 mV, from a holding potential of −80 mV. g, Quantification of the effect of ML67-33 on the indicated channels. Data (mean±s.e., n≧6, N≧2) was normalized to basal channel activity and fitted to the Hill equation. […] Error bars indicate s.e., n≧6, N≧2.
Murine K2P channels were cloned into pGEMHE/pMO {Bagriantsev, 2011}, IRES-GFP (Invitrogen), or pYES2-MET25 (high copy 2μ, URA3) {Minor, 1999} for expression in oocytes, HEK-293T cells, and yeast, respectively, using standard molecular biology procedures, and verified by DNA sequencing.
Two-electrode voltage clamp recordings were performed from defolliculated stage V-VI Xenopus oocytes 24-48 hours after injection with 0.015-6.0 ng cRNA, using microelectrodes (0.3-3.0 MΩ) filled with 3M KCl. Data was acquired using the GeneClamp 500B (MDS Analytical Technologies) amplifier controlled by the pClamp software (Molecular Devices), and digitized at 1 kHz using Digidata 1332A (MDS Analytical Technologies). […]

## CC1(C)c2cc(Cl)ccc2N(CCc2nnn[nH]2)c2ccc(Cl)cc21 [ML67-33, 2,7-dichloro-9,9-dimethyl-10-[2-(1H-tetrazol-5-yl)ethyl]acridine]
Applied at 100 μM
  functional effect (in words): little or no functional effects
At 100 μM (FIG. 7 legend), ** in Table 1
  Emax (fold): 1.7±0.3 fold
